Experimental findings from patent US11414418B2, “Compounds useful as immunomodulators” (Bristol-Myers Squibb Company, priority 2018, dated 2022) are described below.

What is called IC50 is the midpoint of a concentration-inhibition curve. Higher therefore signals a need for much substance.

PD-1/PD-L1 interaction (PD-1-Ig / PD-L1-His), sequence (Q9NZQ7 other isoform, or with tags, fused parts or gaps): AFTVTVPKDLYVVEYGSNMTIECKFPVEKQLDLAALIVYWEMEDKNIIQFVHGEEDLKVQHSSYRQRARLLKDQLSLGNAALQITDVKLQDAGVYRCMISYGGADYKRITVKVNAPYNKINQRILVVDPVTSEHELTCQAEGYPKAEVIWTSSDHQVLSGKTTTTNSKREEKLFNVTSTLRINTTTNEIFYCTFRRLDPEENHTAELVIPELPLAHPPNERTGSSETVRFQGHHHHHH

The assay addresses PD-1/PD-L1 interaction (PD-1-Ig / PD-L1-His) (Homo sapiens (Human), UniProt Q9NZQ7). As to the kind of experiment: PD-1/PD-L1 Homogenous Time-Resolved Fluorescence (HTRF) binding assay. The note with it: PD-L1-His 10 nM final, PD-1-Ig 20 nM final. From the text:
The ability of the compounds of formula (I) to bind to PD-L1 was investigated using a PD-1/PD-L1 Homogenous Time-Resolved Fluorescence (HTRF) binding assay.
1. Homogenous Time-Resolved Fluorescence (HTRF) Binding Assay.
The interaction of PD-1 and PD-L1 can be assessed using soluble, purified preparations of the extracellular domains of the two proteins. The PD-1 and PD-L1 protein extracellular domains were expressed as fusion proteins with detection tags, for PD-1, the tag was the Fc portion of Immunoglobulin (PD-1-Ig) and for PD-L1 it was the 6 histidine motif (PD-L1-His). All binding studies were performed in an HTRF assay buffer consisting of dPBS supplemented with 0.1% […] bovine serum albumin and 0.05% (v/v) Tween-20. For the h/PD-L1-His binding assay, inhibitors were pre-incubated with PD-L1-His (10 nM final) for 15 m in 4 μl of assay buffer, followed by addition of PD-1-Ig (20 nM final) in 1 μl of assay buffer and further incubation for 15 m. HTRF detection was achieved using europium crypate-labeled anti-Ig (1 nM final) and allophycocyanin (APC) labeled anti-His (20 nM final). Antibodies were diluted in HTRF detection buffer and 5 μl was dispensed on top of the binding reaction. The reaction mixture was allowed to equilibrate for 30 minutes and the resulting signal (665 nm/620 nm ratio) was obtained using an EnVision fluorometer. Additional binding assays were established between the human proteins PD-1-Ig/PD-L2-His (20 & 5 nM, respectively) and CD80-His/PD-L1-Ig (100 & 10 nM, respectively).
Recombinant Proteins: Human PD-1 (25-167) with a C-terminal human Fc domain of immunoglobulin G (Ig) epitope tag [hPD-1 (25-167)-3S-IG] and human PD-L1 (18-239) with a C-terminal His epitope tag [hPD-L1 (18-239)-TVMV-His] were expressed in HEK293T cells and purified sequentially by ProteinA affinity chromatography and size exclusion chromatography. Human PD-L2-His and CD80-His was obtained through commercial sources.
A general note: Time-resolved FRET reads energy transfer from a long-lived donor to a nearby acceptor.
For the compound `O=C(CCCN1CC[C@@H](OCc2ccccc2)C1)N1CCCC2(CCCN(C(=O)CCCN3CC[C@@H](OCc4ccccc4)C3)C2)C1` [Example 1001, 1,1′-(2,8-diazaspiro[5.5]undecane-2,8-diyl)bis(4-((R)-3-(benzyloxy)pyrrolidin-1-yl)butan-1-one)], the IC50 was more than 2.5 µM.

In turn, `O=C(CCCN1CC[C@@H](O)C1)N1CCCC2(CCCN(C(=O)CCCN3CC[C@@H](O)C3)C2)C1` [Example 1002, 1,1′-(2,8-diazaspiro[5.5]undecane-2,8-diyl)bis(4-((R)-3-hydroxypyrrolidin-1-yl)butan-1-one)] displayed an IC50 of 0.84 µM.

Turning to `C[C@@](CO)(NCc1cc(Cl)c(CCC(=O)N2CCCC3(CCCN(C(=O)CCCN4CC[C@@H](OCc5ccccc5)C4)C3)C2)cc1OCc1cncc(C(N)=O)c1)C(=O)O` (stereo partly drawn) [Example 1003, (2S)-2-((4-(3-(8-(4-((R)-3-(benzyloxy)pyrrolidin-1-yl)butanoyl)-2,8-diazaspiro[5.5]undecan-2-yl)-3-oxopropyl)-2-((5-carbamoylpyridin-3-yl)methoxy)-5-chlorobenzyl)amino)-3-hydroxy-2-methylpropanoic acid], the IC50 is more than 10 µM.

For the compound `C[C@@](CO)(NCc1cc(Cl)c(CCC(=O)N2CCCC3(CCCN(C(=O)CCCN4CC[C@@H](OCc5ccccc5)C4)C3)C2)cc1OCc1cncc(C#N)c1)C(=O)O` (stereo partly drawn) [Example 1004, (2S)-2-((4-(3-(8-(4-((R)-3-(benzyloxy)pyrrolidin-1-yl)butanoyl)-2,8-diazaspiro[5.5]undecan-2-yl)-3-oxopropyl)-5-chloro-2-((5-cyanopyridin-3-yl)methoxy)benzyl)amino)-3-hydroxy-2-methylpropanoic acid], the IC50 was more than 10 µM.

`COC(=O)c1cncc(COc2cc(CCC(=O)N3CCCC4(CCCN(C(=O)CCCN5CC[C@@H](OCc6ccccc6)C5)C4)C3)c(Cl)cc2CN[C@@](C)(CO)C(=O)O)c1` (stereo partly drawn) [Example 1005, (2S)-2-((4-(3-(8-(4-((R)-3-(benzyloxy)pyrrolidin-1-yl)butanoyl)-2,8-diazaspiro[5.5]undecan-2-yl)-3-oxopropyl)-5-chloro-2-((5-(methoxycarbonyl)pyridin-3-yl)methoxy)benzyl)amino)-3-hydroxy-2-methylpropanoic acid] gave an IC50 of more than 10 µM.
